Measured values reported in US12624034B2, “Non-covalent modifiers of AKT1 and uses thereof” (Terremoto Biosciences, Inc., priority 2023, dated 2026).
Like-named read-outs stand apart in the source and are kept apart here.

What was measured:
[1] = biological target: T1, AKT2 (Homo sapiens, UniProt P31751); experiment: Live cell AKT2 target engagement by NanoBRET competitive probe displacement in HEK293 cells; assay type: binding; conditions: 2 h at 37° C., read-out: AKT2 IC50
T1 construct: expressed in transfected cells; host or cells: HEK293

[2] = biological target: T2, AKT1 WT (Homo sapiens, UniProt P31749); experiment: Live cell AKT1 WT target engagement by NanoBRET competitive probe displacement in HEK293 cells; assay type: binding; conditions: 2 h at 37° C., read-out: AKT1 WT IC50
T2 construct: expressed in transfected cells; host or cells: HEK293

[3] = biological target: T3, AKT1 E17K (Homo sapiens, UniProt P31749, E17K); experiment: Live cell AKT1 E17K target engagement by NanoBRET competitive probe displacement in HEK293 cells; assay type: binding; conditions: 2 h at 37° C.
T3 construct: expressed in transfected cells; host or cells: HEK293
Procedure, shortened: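 Tracer displacement measured in live HEK293 cells carrying NanoLuciferase-fused kinase. Compound competes with a fluorescently labelled ATP-competitive tracer used near its EC50 over 2 h at 37° C, and IC50 values come from Hill fitting of the 600/460 nm BRET signal.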

[4] = system: LAPC4 prostate cancer cells, which express the AKT1 E17K allele; experiment: Antiproliferative effects in LAPC4 cells (CellTiter Glo, 72 h); assay type: cell-based; conditions: Homo sapiens, LAPC4, 72 h, read-out: LAPC4 proliferation IC50
Procedure, shortened: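 Growth inhibition is gauged by intracellular ATP content, measured with CellTiter Glo 72 h after compound addition to 1,000 seeded cells per well. IC50 derives from a Hill equation fit.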

[5] = NanoBRET live cell target engagement, HEK293 cells
[6] = NanoBRET competitive probe displacement, live HEK293 cells

T2 sequence (P31749 whole entry): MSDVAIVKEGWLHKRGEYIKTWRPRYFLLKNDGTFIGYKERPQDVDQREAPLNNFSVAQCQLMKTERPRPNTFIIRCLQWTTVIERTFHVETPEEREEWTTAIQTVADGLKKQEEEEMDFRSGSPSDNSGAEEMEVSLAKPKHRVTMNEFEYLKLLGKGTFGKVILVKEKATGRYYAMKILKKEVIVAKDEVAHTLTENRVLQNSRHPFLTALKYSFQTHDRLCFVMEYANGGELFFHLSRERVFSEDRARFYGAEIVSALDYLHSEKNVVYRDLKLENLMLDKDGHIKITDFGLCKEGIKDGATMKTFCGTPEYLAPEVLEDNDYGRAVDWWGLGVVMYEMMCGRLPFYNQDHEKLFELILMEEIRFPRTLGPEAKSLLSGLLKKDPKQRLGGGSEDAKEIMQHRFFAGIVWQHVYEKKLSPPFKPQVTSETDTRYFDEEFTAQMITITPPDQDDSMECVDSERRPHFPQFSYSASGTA
T3 sequence (P31749 whole entry E17K): as the sequence (P31749 whole entry) above, with E17K counted along it
T1 sequence (P31751 whole entry): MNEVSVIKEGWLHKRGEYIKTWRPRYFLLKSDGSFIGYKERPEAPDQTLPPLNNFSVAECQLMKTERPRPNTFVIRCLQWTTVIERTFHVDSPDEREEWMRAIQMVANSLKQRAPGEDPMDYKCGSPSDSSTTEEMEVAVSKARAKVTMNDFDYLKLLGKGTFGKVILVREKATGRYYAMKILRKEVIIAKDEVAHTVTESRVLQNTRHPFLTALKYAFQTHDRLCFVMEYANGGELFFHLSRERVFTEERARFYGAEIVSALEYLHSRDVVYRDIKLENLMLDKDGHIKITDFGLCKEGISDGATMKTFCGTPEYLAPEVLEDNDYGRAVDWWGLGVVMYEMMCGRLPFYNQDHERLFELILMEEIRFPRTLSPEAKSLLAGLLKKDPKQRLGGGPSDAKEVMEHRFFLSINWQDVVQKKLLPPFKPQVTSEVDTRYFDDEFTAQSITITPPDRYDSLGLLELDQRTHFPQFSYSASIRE

IC50 [1, 5] | IC50 [2, 5] | IC50 [3, 5] | IC50 [4] | IC50 [1, 6] | IC50 [2, 6] | IC50 [3, 6] | SMILES
0.0555 µM | 0.0105 µM | 0.0444 µM | 0.733 µM |  |  |  | Nc1ncccc1-c1nc2ccc(-n3cccn3)nc2n1-c1ccc2c(c1)CC[C@@H]2NC(=O)c1ccc(C(F)F)nc1 [Compound 18, (S)—N-(5-(2-(2-aminopyridin-3-yl)-5-(1H-pyrazol-1-yl)-3H-imidazo[4,5-b]pyridin-3-yl)-2,3-dihydro-1H-inden-1-yl)-6-(difluoromethyl)nicotinamide]
 |  |  | 3 µM | 0.477 µM | 0.00799 µM | 0.0533 µM | COc1cc(C(=O)N[C@H]2CCc3cc(-n4c(-c5ccccc5F)nc5ccc(-n6cccn6)nc54)ccc32)ccn1 [Compound 402]
1.25 µM | 0.0586 µM | 0.164 µM | 3.46 µM |  |  |  | Nc1ncccc1-c1nc2ccc(-n3cccn3)nc2n1-c1ccc2c(c1)CC[C@@H]2NC(=O)c1ccccn1 [Compound 36, N-[(1S)-5-[2-(2-aminopyridin-3-yl)-5-(pyrazol-1-yl)imidazo[4,5-b]pyridin-3-yl]-2,3-dihydro-1H-inden-1-yl]pyridine-2-carboxamide]
0.47 µM | 0.0339 µM | 0.366 µM | 7.88 µM |  |  |  | Cc1ccncc1C(=O)N[C@H]1CCc2cc(-n3c(-c4cccnc4N)nc4ccc(-n5cccn5)nc43)ccc21 [Compound 31, (S)—N-(5-(2-(2-aminopyridin-3-yl)-5-(1H-pyrazol-1-yl)-3H-imidazo[4,5-b]pyridin-3-yl)-2,3-dihydro-1H-inden-1-yl)-4-methylnicotinamide]
1.07 µM | 0.051 µM | 0.57 µM | 4.38 µM |  |  |  | Nc1ncccc1-c1nc2ccc(-n3cccn3)nc2n1-c1ccc2c(c1)CC[C@@H]2NC1CCN(C(=O)c2ccccc2)CC1 [Compound 275]
 |  |  | 1.51 µM | 0.36 µM | 0.00317 µM | 0.059 µM | COc1cc(C(=O)N[C@H]2CCc3cc(-n4c(-c5cccnc5N)nc5ccc(-n6nccn6)nc54)ccc32)cnn1 [Compound 426]
0.141 µM | 0.00955 µM | 0.0741 µM | 1.4 µM |  |  |  | Nc1ncccc1-c1nc2ccc(-n3cccn3)nc2n1-c1ccc2c(c1)CC[C@@H]2NC(=O)c1ccnc(C(F)F)c1 [Compound 44, (S)—N-(5-(2-(2-aminopyridin-3-yl)-5-(1H-pyrazol-1-yl)-3H-imidazo[4,5-b]pyridin-3-yl)-2,3-dihydro-1H-inden-1-yl)-2-(difluoromethyl)isonicotinamide]
0.128 µM | 0.0116 µM | 0.357 µM | 0.915 µM |  |  |  | Cc1ccc(C(=O)N[C@H]2CCc3cc(-n4c(-c5cccnc5N)nc5ccc(-n6ccc(F)n6)nc54)ccc32)cn1 [Compound 52, (S)—N-(5-(2-(2-aminopyridin-3-yl)-5-(3-fluoro-1H-pyrazol-1-yl)-3H-imidazo[4,5-b]pyridin-3-yl)-2,3-dihydro-1H-inden-1-yl)-6-methylnicotinamide]
> 10 µM | 0.231 µM | > 1 µM | > 10 µM |  |  |  | Nc1ncccc1-c1nc2ccc(-n3cccn3)nc2n1-c1ccc2c(c1)CC[C@@H]2NC1CCN(C(=O)c2cccnc2)CC1 [Compound 359]
0.0986 µM | 0.0142 µM | 0.143 µM | 1.75 µM |  |  |  | Nc1ncccc1-c1nc2ccc(-n3cccn3)nc2n1-c1ccc2c(c1)CC[C@@H]2NC(=O)c1ccncc1 [Compound 35, N-[(1S)-5-[2-(2-aminopyridin-3-yl)-5-(pyrazol-1-yl)imidazo[4,5-b]pyridin-3-yl]-2,3-dihydro-1H-inden-1-yl]pyridine-4-carboxamide]
8.14 µM | 0.483 µM | > 1 µM | > 10 µM |  |  |  | Nc1ncccc1-c1nc2ccc(-n3cccn3)nc2n1-c1ccc2c(c1)CC[C@@H]2NC1CCN(C(=O)c2ccncc2)CC1 [Compound 360]
0.858 µM | 0.0619 µM | > 1 µM | 8.98 µM |  |  |  | Nc1ncccc1-c1nc2ccc(-n3cccn3)nc2n1-c1ccc2c(c1)CC[C@@H]2N [Example 2, (S)-3-(3-(1-amino-2,3-dihydro-1H-inden-5-yl)-5-(1H-pyrazol-1-yl)-3H-imidazo[4,5-b]pyridin-2-yl)pyridin-2-amine]
0.636 µM | 0.0169 µM | 0.259 µM | 3 µM |  |  |  | Nc1ncccc1-c1nc2ccc(-n3cccn3)nc2n1-c1ccc2c(c1)CC[C@@H]2n1cc(C2CCC2)nn1 [Compound 287]
